# Experimental data taken from US20040044028A1, “Combinations of omega-3 fatty acids and cyclooxygenase-2 inhibitors for treatment or prevention of cardiovascular disease and treatment or prevention of cancer” (priority 2001, published 2004).
# Marks after values point to notes of the source that are not given here.
# How the values were obtained:
# mouse liver [1] = tested on: mouse liver; set-up: species or system mice; settings: in vivo
# Description: The metabolism of stearidonic acid to long chain n-3 polyunsaturated fatty acids (i.e., eicosapentaenoic acid (EPA), docosapentaenoic acid (DPA n-3) and docosahexaenoic acid (DHA)) in mouse liver is compared to that of α-linolenic acid, eicosapentaenoic acid and docosahexaenoic acid. The method used is a non-radioactive, dose response, metabolic end-point study.
# Mice are fed a US 17 diet containing α-linolenic acid ethyl ester (ALA-EE), stearidonic acid ethyl ester (SDA-EE), eicosapentaenoic acid ethyl ester (EPA-EE), or docosahexaenoic acid ethyl ester (DHA-EE) in an amount equivalent to a human western diet containing 1, 3 or 10 g/day of the fatty acid (g/day human equivalent dose). In order to maintain a 17% fat (37% energy) content in the US17 diet, oleic acid (18:1 n-9), as an oleic acid cassette, is removed from the US17 diet in an amount equal to the amount of fatty acid ester that is added. Oleic acid is selected as the replacement fatty acid because literature reports indicate that oleic acid is neutral with respect to inflammation and cancer.
# After one month on the respective US17-based diets, the mice are sacrificed and the fatty acid composition of each of their livers is analyzed by gas chromatography. The sum of the long chain n-3 PUFAs (i.e., EPA+DPA n-3+DHA) increases dose dependently in liver tissue in the following rank order: DHA-EE>EPA-EE>SDA-EE>ALA-EE. […] Each of the dietary n-3 PUFAs decreases the level of arachidonic acid in liver tissue dose dependently. This is significant because arachidonic acid metabolites (e.g., prostaglandins, leukotrienes, and HETEs (hydroxyeicosatetraenoic acid)) are correlated with cardiovascular disease, inflammation, and tumorigenesis. The group “basal” refers to mice that are fed the standard rodent chow diet just prior to switching to diets that are US17 based.
# HepG2 cells = experiment: Metabolism of 14C fatty acids to long chain n-3 PUFAs, EPA and DHA in HepG2 cells; assay type: in vitro ADME; settings: for metabolized to DHA / metabolized to EPA: 20 μM 14C fatty acid
# Method: To a culture medium containing HepG2 cells is added 20 μM ^14C-ALA, ^14C-SDA or ^14C-EPA complexed to fatty acid free BSA. The amount of ^14C-ALA, ^14C-SDA or ^14C-EPA taken up by the HepG2 cells is measured at 6 hours, 24 hours and 48 hours after addition of the fatty acid. A scintillation counter is used to measure the total amount of radioactivity in the HepG2 cells and the amount remaining in the medium.
# The metabolism of stearidonic acid to long chain n-3 PUFAs (eicosatetraenoic acid (20:4n-3), eicosapentaenoic acid (20:5n-3), docosapentaenoic acid (22:5n-3), and docosahexaenoic acid (22:6n-3)) in HepG2 cells is compared to that of α-linolenic acid. HepG2 cells are allowed to take up ^14C-ALA or ^14C-SDA as described in Example 2. The total amount of ^14C-EPA, ^14C-DPA and ^14C-DHA present in the HepG2 cells is measured at 6 hours, 24 hours and 48 hours after addition of the fatty acid by argentation thin layer chromatography (TLC). The amount of each fatty acid present as a band on the TLC plate is quantified by electronic autoradiography using an Instant Imager available from Packard (Meriden, Conn.).
# HepG2 cells are allowed to take up ^14C-ALA, ^14C-SDA or ^14C-EPA as described in Example 2. The amount of ^14C-EPA and ^14C-DHA present in the HepG2 cells is measured at 6 hours, 24 hours and 48 hours after addition of the fatty acids by argentation thin layer chromatography (TLC) as described in Example 3. The amount of ^14C-EPA and ^14C-DHA present as bands on the TLC plate are quantified by electronic autoradiography using an Instant Imager as described in Example 3.
# [2] = tested on: Min/+ mouse model of intestinal cancer; experiment: Min/+ mouse model of intestinal cancer, intestinal polyp formation; assay type: in vivo; settings: for mice with large intestine tumors / mice in group (in parentheses): seven weeks on US17 diet with fatty acid ethyl ester 3% wt. or sulindac 320 ppm; for effect on polyp number: differences not significant relative to the US17 control
# Method: The efficacy of select n-3 and n-6 polyunsaturated fatty acids is evaluated in the Min/+ mouse model of intestinal cancer. The following fatty acid ethyl esters are tested for their effect on intestinal polyp formation: 1) ALA-EE; 2) SDA-EE; 3) EPA-EE; 4) DHA-EE; 5) GLA-EE ([…] adid, 18:3 n-6); and 6) CLA-EE (conjugated linoleic acid; c9t11-18:2 (77%)+c9c11-18:2 (18%)+other isomers (5%)).
# These fatty acid ethyl esters are added to the US17 diet to provide 10 g/day human equivalent dose (3% wt.). The NSAID, sulindac (320 ppm), serves as the positive control. In order to maintain a 17% fat (37 en %) content in the US17 diet, oleic acid (18:1 n-9) is removed from the US17 diet in an amount equal to the amount of the fatty acid ethyl ester that is added. Mice are received at approximately five weeks of age and are fed the test diets upon receipt. After seven weeks on the respective test diet, the mice are sacrificed and the intestinal polyps are counted and measured.
# mouse liver [3] = experiment: Metabolism in mice, time course analysis using radiolabeled fatty acids; assay type: in vivo; settings: 10 μCi intraperitoneal, at 24 hours
# Description: The metabolism of stearidonic acid to long chain n-3 polyunsaturated fatty acids (i.e., eicosapentaenoic acid (EPA), docosapentaenoic acid (DPA n-3), and docosahexaenoic acid (DHA)) in mouse liver is compared to that of α-linolenic acid, eicosapentaenoic acid and docosahexaenoic acid. The method used is a time course study using ^14C-labeled fatty acids.
# Mice are fed the US 17 diet for a period of one month in order to achieve steady-state fatty acid metabolism. After achieving steady-state fatty acid metabolism, the mice are administered an intraperitoneal injection containing 10 μCi of ^14C-ALA, ^14C-SDA, ^14C-EPA or ^14C-DHA. Mice are sacrificed 3 hours, 8 hours or 24 hours post-injection, and the total amount of ^14C-EPA, ^14C-DPA n-3 and ^14C-DHA is measured by argentation thin layer chromatography followed by direct electronic autoradiography, as described in Example 3. The order of metabolism of the PUFAs is DHA=EPA>SDA>ALA at 24 hours. SDA is metabolized to long chain n-3 PUFAs more efficiently than ALA in vivo.
# rat liver = experiment: Metabolism in rats, end point analysis using cold fatty acid ethyl esters; assay type: in vivo; settings: dietary ethyl esters
# Method: Oleic acid is selected as the replacement fatty acid because literature reports indicate that oleic acid is neutral with respect to inflammation and cancer. After one month on the respective US17-based diets, the mice are sacrificed and the fatty acid composition of each of their livers is analyzed by gas chromatography. […] DHA-EE>EPA-EE>SDA-EE>ALA-EE. […] This is significant because arachidonic acid metabolites (e.g., prostaglandins, leukotrienes, and HETEs (hydroxyeicosatetraenoic acid)) are correlated with cardiovascular disease, inflammation, and tumorigenesis. The group “basal” refers to mice that are fed the standard rodent chow diet just prior to switching to diets that are US17 based. […] The method used is as described in Example 6 except that rats are used in place of mice.
# [4] = tested on: small intestine tissue of Min/+ mouse; experiment: Arachidonic acid level in small intestine tissue of Min/+ mice; assay type: in vivo; settings: phospholipid fraction, ethyl ester 3% wt. in US17 diet
# Method: The efficacy of select n-3 and n-6 polyunsaturated fatty acids in reducing the level of arachidonic acid in small intestine tissue is evaluated using the Min/+ mouse model.
# The following fatty acid ethyl esters are tested for their effect on intestinal fatty acid composition: 1) ALA-EE; 2) SDA-EE; 3) EPA-EE; 4) DHA-EE; 5) GLA-EE; and 6) CLA-EE. Fatty acid composition is determined in the small intestine because that is where the vast majority of polyps form.
# These fatty acid esters are added to the US17 diet as discussed in Example 8. The arachidonic acid level in the phospholipid fraction of the small intestines of the mice is determined by gas chromatography.
# [5] = Min/+ mice, seven weeks, ethyl ester 3% wt. or sulindac 320 ppm
# [6] = Min/+ mice, seven weeks, ethyl ester 3% wt. or sulindac 320 ppm, mean ± SEM
# [7] = large and small intestine, Min/+ mice, seven weeks, ethyl ester 3% wt. or sulindac 320 ppm, mean ± SEM
# [8] = tumor number × tumor size, Min/+ mice, seven weeks, ethyl ester 3% wt. or sulindac 320 ppm, mean ± SEM
compound,measurement,setting,value
"CC/C=C\C/C=C\C/C=C\CCCCCCCC(=O)OCC [ALA-EE, α-linolenic acid ethyl ester]","sum of the long chain n-3 PUFAs (EPA+DPA n-3+DHA) in liver tissue, rank order of dose dependent increase",mouse liver [1],DHA-EE>EPA-EE>SDA-EE>ALA-EE
"CC/C=C\C/C=C\C/C=C\CCCCCCCC(=O)O [Compound A-1, all cis 9,12,15-octadecatrienoic acid]",metabolized to DHA,HepG2 cells,3%
same,metabolized to EPA,HepG2 cells,24%
same,effectiveness in inhibiting polyp formation and development in the large intestine,[2]; Min/+ mice,marginally efficacious
same,Total large intestine tumors/group,"[2]; Min/+ mice, seven weeks on US17 diet with fatty acid ethyl ester 3% wt. (10 g/day human equivalent dose) or sulindac 320 ppm",8
same,Total small intestine tumors/group,[2]; [5],364
same,Avg. large intestine tumors/mouse,[2]; [6],0.8 ± 0.3^bcd
same,Avg. small intestine tumor size,[2]; [6],1.23 ± 0.04^ab mm
same,Avg. small intestine tumors/mouse,[2]; [6],36.4 ± 6.3^ab
same,Avg. large intestine tumor size,"[2]; Min/+ mice, seven weeks, ethyl ester 3% wt. or sulindac 320 ppm, mean ± SEM, only animals bearing colonic tumors",2.75 ± 0.46^ab
same,Total Avg. overall tumor size,[2]; [7],1.21 ± 0.03^bc mm
same,Total Avg. tumors/mouse,[2]; [7],37.2 ± 6.6^ab
same,mice with large intestine tumors / mice in group (in parentheses),[2],5/10
same,Total Avg. overall tumor load,"[2]; tumor number × tumor size, large and small intestine, Min/+ mice, seven weeks, ethyl ester 3% wt. or sulindac 320 ppm, mean ± SEM",45.97 ± 8.88^ab mm
same,Avg. large intestine tumor load,[2]; [8],2.15 ± 0.82^bcd mm
same,Avg. small intestine tumor load,[2]; [8],45.67 ± 8.66^ab mm
"CC/C=C\C/C=C\C/C=C\C/C=C\CCCCC(=O)O [Compound A-2, all cis 6,9,12,15-octadecatetraenoic acid]","metabolism to long chain n-3 PUFAs, comparison",HepG2 cells,faster than that of ALA
same,metabolized to DHA,HepG2 cells,6%
same,metabolized to EPA,HepG2 cells,55%
same,"order of metabolism of the PUFAs to long chain n-3 PUFAs (14C-EPA, 14C-DPA n-3, 14C-DHA)",mouse liver [3],DHA=EPA>SDA>ALA
same,"decrease in the level of arachidonic acid, comparison",rat liver,greater decrease in the level of arachidonic acid than does either ALA or EPA
same,"metabolism to long chain n-3 polyunsaturated fatty acids, comparison",rat liver,better than ALA
same,Total small intestine tumors/group,[2]; [5],18
same,Total Avg. tumors/mouse,[2]; [7],18.7 ± 1.9^c
same,mice with large intestine tumors / mice in group (in parentheses),[2],2/10
same,"decreasing the level of arachidonic acid in the small intestine, comparison",[4],"more effective than ALA, EPA and DHA"
"CC/C=C\C/C=C\C/C=C\C/C=C\C/C=C\CCCC(=O)O [Compound A-4, all cis (5,8,11,14,17-eicosapentaenoic acid]",effectiveness in inhibiting polyp formation and development in the large intestine,[2]; Min/+ mice,marginally efficacious
same,Total small intestine tumors/group,[2]; [5],17
same,Total Avg. tumors/mouse,[2]; [7],18.5 ± 2.2^c
same,mice with large intestine tumors / mice in group (in parentheses),[2],6/10
same,Avg. small intestine tumor load,[2]; [8],18.34 ± 2.04^cd mm
"CC/C=C\C/C=C\C/C=C\C/C=C\C/C=C\C/C=C\CCC(=O)O [Compound A-6, all cis 4,7,10,13,16,19-docosahexanoic acid]","order of metabolism of the PUFAs to long chain n-3 PUFAs (14C-EPA, 14C-DPA n-3, 14C-DHA)",mouse liver [3],DHA=EPA>SDA>ALA
same,mice with large intestine tumors / mice in group (in parentheses),[2],9/10
"CC/C=C\C/C=C\C/C=C\C/C=C\C/C=C\C/C=C\CCC(=O)OCC [DHA-EE, docosahexaenoic acid ethyl ester]","sum of the long chain n-3 PUFAs (EPA+DPA n-3+DHA) in liver tissue, rank order of dose dependent increase",mouse liver [1],DHA-EE>EPA-EE>SDA-EE>ALA-EE
"CC/C=C\C/C=C\C/C=C\C/C=C\C/C=C\CCCC(=O)OCC [EPA-EE, eicosapentaenoic acid ethyl ester]","sum of the long chain n-3 PUFAs (EPA+DPA n-3+DHA) in liver tissue, rank order of dose dependent increase",mouse liver [1],DHA-EE>EPA-EE>SDA-EE>ALA-EE
"CCCCC/C=C\C/C=C\C/C=C\CCCCC(=O)O [GLA, γ-linolenic acid, reference compound]",Total small intestine tumors/group,[2]; [5],42
same,effect on polyp number,[2]; Min/+ mice,appears to increase polyp number
same,mice with large intestine tumors / mice in group (in parentheses),[2],6/9
"CC/C=C\C/C=C\C/C=C\C/C=C\CCCCC(=O)OCC [SDA-EE, stearidonic acid ethyl ester]","sum of the long chain n-3 PUFAs (EPA+DPA n-3+DHA) in liver tissue, rank order of dose dependent increase",mouse liver [1],DHA-EE>EPA-EE>SDA-EE>ALA-EE
"CC1=C(CC(=O)O)c2cc(F)ccc2/C1=C\c1ccc([S+](C)[O-])cc1 (centres unmarked) [Sulindac, sulindac, reference compound]",Avg. large intestine tumors/mouse,[2]; [6],0.2 ± 0.2^ad
same,mice with large intestine tumors / mice in group (in parentheses),[2],2/9
"conjugated linoleic acid [CLA, reference compound]",Total small intestine tumors/group,[2]; [5],40
same,effect on polyp number,[2]; Min/+ mice,appears to increase polyp number
same,mice with large intestine tumors / mice in group (in parentheses),[2],5/9
